# Measurements from patent US11324768B2, “Applications of triacetyl-3-hydroxyl phenyl adenosine in treating vascular inflammations or improving vascular endothelium functions” (priority 2016, dated 2022).
# Assays:
# Assay type in all cases: in vivo
# [1] = tested on: ApoE−/− mice; assay: Blood lipid levels in high-fat-fed ApoE−/− mice; settings: 200 mg/kg, 8 weeks, high-fat diet
# Procedure: (§1) After 1 week of adaptive feeding, the animals were randomly divided into 7 groups according to body weight: normal control group, model control group A769662 (30 mg/kg) administration group, metformin (260 mg/kg) administration group, IMM-H007 low, medium, and high administration groups (50, 100, 200 mg/kg), 8 in each group, and were given a high-fat diet (78.6% basal diet, 10% lard, 1.0% cholesterol, 10% egg yolk powder, and 0.4% bile salt), and simultaneously administered intragastrically at a dose of 0.1 ml/10 g body weight, and were continuously administered and fed for 8 weeks to establish an atherosclerosis model.
# (1) Effect of IMM-H007 on Blood Lipid Levels in ApoE−/− Mice: Total Cholesterol (TC), Triglyceride (TG), Low-Density Lipoprotein Cholesterol (LDL), High-Density Lipoprotein Cholesterol (HDL), and Free Fatty Acid (FFA)
# Operated according to kit instructions
# [2] = tested on: mesenteric arterioles; assay: Microvascular endothelial function in Ob/Ob obese mice (mesenteric arterioles, Ach / SNP relaxation)
# Procedure: PSS and KPSS solutions were configured according to the instructions and used at the same time of the day. The PSS solution was taken out before the start of the experiment and pre-oxygenated for about 20 min. The ApoE−/− mice, which were fed with high-fat and simultaneously administered for 10 weeks, were anesthetized with pentobarbital sodium. The mice were supine and fixed. The abdominal cavity was opened along the median line. The mesenteric vascular bed was isolated and placed in the pre-oxygenated 20-minute PSS buffer. Under a stereomicroscope, a third-order mesenteric artery with a length of about 3 mm was carefully isolated. Firstly, the blood vessel was fixed to a P1 glass cannula and the coil was tightened. Note: the proximal end should be connected to the P1 end, and the P2 end vessel should be fixed and the coil should be tightened. The Chamber was placed on a objective table of the microscope and the data connection between Chamber and Interface was checked. The bath cover was covered and the oxygen was introduced, to exhaust air in the pipeline. The blood vessel image was found under the microscope and then the microscope was turned to camera mode. (The knob on the side of the eyepiece was rotated to graph.) MyoVIEW software was opened. The Camera window Capture was clicked to display the blood vessel image. The equilibration of blood vessels slowly rose from 10 mmHg to 60 mmHg, and each step was 300 s. After the equilibration procedure was completed, the solution in the bath was drained. Blood vessels were stimulated (10 ml) for 2 min using a 37° C. pre-heated KPSS solution, and changes in vasoconstriction were observed, and the blood vessels were then eluted using the PSS solution to baseline. The blood vessels were equilibrated at 60 mmHg 37° C. for 45 minutes, during which time the fluid was replaced every 20 minutes. The experiment was started: observing the vasodilatory response induced by 10^−10 to 10^−5 M Ach after pre-contraction with 2 μM phenylephrine, to evaluate the effect of the drugs on the vascular endothelial function. At the end of the experiment, the fresh 37° C. pre-heated PSS buffer was replaced for equilibration for 30 min, and the 10^−10M to 10^−3 M sodium nitroprusside were given to induce vasodilatory response after pre-contraction with 2 μM phenylephrine, to evaluate the effect of the drugs on vascular smooth muscle function. LD1 was the diameter of blood vessel after relaxation by administration of different concentrations of ACh or sodium nitroprusside, LD2 was the diameter of blood vessels after pre-contraction with phenylephrine, and LD3 represented the maximum diastolic diameter of blood vessel without any stimulant.
# The relaxation response to Ach and sodium nitroprusside after pre-contraction with phenylephrine was expressed as the percentage increase in the vascular diameter: % Relaxation=(LD1−LD2)/(LD3−LD2)×100.
# […] The changes of food intake and body weight were recorded, and routine biochemical indicators such as blood lipids and blood glucose, etc. were measured. After 9 weeks, 3 animals were taken from each group and the mesenteric arterioles were taken for measurement of vascular endothelial function in the same manner as in Example 2.
# [3] = tested on: thoracic aorta; assay: Endothelial function of thoracic aorta in ApoE−/− mice (vascular ring, Ach / SNP relaxation)
# Procedure: as §1
# The mice were anesthetized. The thoracic aorta was quickly taken, after carefully stripping the surrounding tissue, was cut into a vascular ring with a length of about 3 mm. The vascular ring was carefully hung on a tonotransducer, given an initial tension of 0.5 g and equilibrated for 90 minutes or more. During the equilibration process, the fluid was replaced every 20 minutes, aeration was maintained and the temperature was maintained at 37° C. The vascular ring was equilibrated for about 1 hour and stimulated twice with saturated KCl (60 mM) to detect whether the blood vessel was active. After vasoconstriction was stabilized, KCl was washed away immediately. After the last replacement of the fluid, the vascular ring was equilibrated for 20 minutes, given phenylephrine 1 μM to stimulate vasoconstriction, and after vasoconstriction was stabilized, it was cumulatively administered with acetylcholine (Ach, 1×10^−10 to […]) and sodium nitroprusside (SNP, 10^−10 to 10^−4 M) to record the vasodilation curve. Vasodilation rate=[PE-induced vascular tone (g)-vascular tension after addition of ACh (g)][…][PE contraction-induced tension (g)-basal vascular tone (g)]×100%.
compound,measurement,setting,value
"CC(=O)OCC1OC(n2cnc3c(Nc4cccc(O)c4)ncnc32)C(OC(C)=O)C1OC(C)=O (centres unmarked) [IMM-H007, 2′,3,′ 5′-triacetyl-N^6(3-hydroxyphenyl)adenosine]",High-density lipoprotein (HDL-C),[1],1.64 ± 1.15
same,Triglyceride (TG),[1],1.48 ± 0.34
same,microvascular endothelial function,"[2]; 400 mg/kg, 9 weeks",improve
same,acetylcholine endothelium-dependent relaxation of microvascular,"[2]; 400 mg/kg, 1 × 10^−5 M Ach",93.6 ± 1.1 %
same,acetylcholine endothelium-dependent relaxation of microvascular,"[2]; 400 mg/kg, 1 × 10^−6 M Ach",82.1 ± 9.3 %
same,acetylcholine endothelium-dependent relaxation of microvascular,"[2]; 400 mg/kg, 1 × 10^−7 M Ach",71.7 ± 13.5 %
same,acetylcholine endothelium-dependent relaxation of microvascular,"[2]; 400 mg/kg, 1 × 10^−8 M Ach",57.6 ± 15.8 %
same,acetylcholine endothelium-dependent relaxation of microvascular,"[2]; 400 mg/kg, 1 × 10^−9 M Ach",32.3 ± 18.9%
same,acetylcholine endothelium-dependent relaxation of microvascular,"[2]; 400 mg/kg, 1 × 10^−10 M Ach",0.96 ± 0.85%
same,sodium nitroprusside endothelium-independent relaxation of microvascular,[2]; 1 × 10^−3 M SNP,95.0 ± 3.8%
same,sodium nitroprusside endothelium-independent relaxation of microvascular,[2]; 1 × 10^−4 M SNP,94.3 ± 2.3%
same,sodium nitroprusside endothelium-independent relaxation of microvascular,[2]; 1 × 10^−5 M SNP,91.4 ± 2.5%
same,sodium nitroprusside endothelium-independent relaxation of microvascular,[2]; 1 × 10^−6 M SNP,80.8 ± 6.9%
same,sodium nitroprusside endothelium-independent relaxation of microvascular,[2]; 1 × 10^−7 M SNP,68.3 ± 5.1%
same,sodium nitroprusside endothelium-independent relaxation of microvascular,[2]; 1 × 10^−8 M SNP,58.9 ± 3.2%
same,sodium nitroprusside endothelium-independent relaxation of microvascular,[2]; 1 × 10^−9 M SNP,43.5 ± 4.1%
same,sodium nitroprusside endothelium-independent relaxation of microvascular,[2]; 1 × 10^−10 M SNP,16.9 ± 6.3%
same,sodium nitroprusside endothelium-independent relaxation of aortic vessel,"[3]; 50 mg/kg, 1 × 10^−4 M SNP",97.8 ± 4.9%
same,acetylcholine endothelium-dependent relaxation of aortic vessel,"[3]; 50 mg/kg, 1 × 10^−5 M Ach",91.0 ± 2.3 %
same,sodium nitroprusside endothelium-independent relaxation of aortic vessel,"[3]; 50 mg/kg, 1 × 10^−5 M SNP",89.4 ± 6.8%
same,acetylcholine endothelium-dependent relaxation of aortic vessel,"[3]; 50 mg/kg, 1 × 10^−6 M Ach",67.5 ± 11.0 %
same,sodium nitroprusside endothelium-independent relaxation of aortic vessel,"[3]; 50 mg/kg, 1 × 10^−6 M SNP",87.2 ± 10.1%
same,acetylcholine endothelium-dependent relaxation of aortic vessel,"[3]; 50 mg/kg, 1 × 10^−7 M Ach",54.1 ± 18.8 %
same,sodium nitroprusside endothelium-independent relaxation of aortic vessel,"[3]; 50 mg/kg, 1 × 10^−7 M SNP",68.3 ± 20.5%
same,acetylcholine endothelium-dependent relaxation of aortic vessel,"[3]; 50 mg/kg, 1 × 10^−8 M Ach",39.2 ± 14.0%
same,sodium nitroprusside endothelium-independent relaxation of aortic vessel,"[3]; 50 mg/kg, 1 × 10^−8 M SNP",58.4 ± 13.8%
same,acetylcholine endothelium-dependent relaxation of aortic vessel,"[3]; 50 mg/kg, 1 × 10^−9 M Ach",29.3 ± 11.2%
same,sodium nitroprusside endothelium-independent relaxation of aortic vessel,"[3]; 50 mg/kg, 1 × 10^−9 M SNP",43.1 ± 24.6%
same,acetylcholine endothelium-dependent relaxation of aortic vessel,"[3]; 50 mg/kg, 1 × 10^−10 M Ach",11.6 ± 7.0%
same,sodium nitroprusside endothelium-independent relaxation of aortic vessel,"[3]; 50 mg/kg, 1 × 10^−10 M SNP",18.0 ± 16.3%
same,acetylcholine endothelium-dependent relaxation of aortic caused by high fat,"[3]; 50 mg/kg, compared with the model control group",significantly improve
same,sodium nitroprusside endothelium-independent relaxation of aortic vessel,"[3]; 200 mg/kg, 1 × 10^−4 M SNP",97.9 ± 10.8%
same,acetylcholine endothelium-dependent relaxation of aortic vessel,"[3]; 200 mg/kg, 1 × 10^−5 M Ach",97.8 ± 8.2 %
same,sodium nitroprusside endothelium-independent relaxation of aortic vessel,"[3]; 200 mg/kg, 1 × 10^−5 M SNP",95.4 ± 8.5%
same,acetylcholine endothelium-dependent relaxation of aortic vessel,"[3]; 200 mg/kg, 1 × 10^−6 M Ach",87.4 ± 10.9 %
same,sodium nitroprusside endothelium-independent relaxation of aortic vessel,"[3]; 200 mg/kg, 1 × 10^−6 M SNP",94.1 ± 20.6%
same,acetylcholine endothelium-dependent relaxation of aortic vessel,"[3]; 200 mg/kg, 1 × 10^−7 M Ach",64.2 ± 17.7 %
same,sodium nitroprusside endothelium-independent relaxation of aortic vessel,"[3]; 200 mg/kg, 1 × 10^−7 M SNP",73.6 ± 23.3%
same,acetylcholine endothelium-dependent relaxation of aortic vessel,"[3]; 200 mg/kg, 1 × 10^−8 M Ach",47.6 ± 22.5%
same,sodium nitroprusside endothelium-independent relaxation of aortic vessel,"[3]; 200 mg/kg, 1 × 10^−8 M SNP",62.3 ± 22.7%
same,acetylcholine endothelium-dependent relaxation of aortic vessel,"[3]; 200 mg/kg, 1 × 10^−9 M Ach",31.4 ± 18.5%
same,sodium nitroprusside endothelium-independent relaxation of aortic vessel,"[3]; 200 mg/kg, 1 × 10^−9 M SNP",30.5 ± 20.8%
same,acetylcholine endothelium-dependent relaxation of aortic vessel,"[3]; 200 mg/kg, 1 × 10^−10 M Ach",9.4 ± 3.9%
same,sodium nitroprusside endothelium-independent relaxation of aortic vessel,"[3]; 200 mg/kg, 1 × 10^−10 M SNP",12.4 ± 8.4%
